# Reference: article PMC9381478, “A context-dependent and disordered ubiquitin-binding motif” (Cellular and Molecular Life Sciences: CMLS, 2022)
# “Also recorded” adds a separate entry of the source.
# Key:
# ubiquitin [1] = target: T1, ubiquitin (Schizosaccharomyces pombe, UniProt P0CH06); test: NMR titration of 15N-ubiquitin (1H-15N HSQC chemical shift perturbations); format: binding, S. pombe; conditions: for Kd: peptide or protein titrated into 100 µM 15N-ubiquitin, 20 mM NaH2PO4, 150 mM NaCl, 5 mM TCEP, pH 7.5, global fit of CSPs to one-site-binding model
# T1 construct: plasmid coding for S. pombe ubiquitin with an N-terminal 6xhistidine-tag, TEV-cleavage site as well as an N-terminal free cysteine; made in house; host or cells: E. coli BL21(DE3)
# T1 sequence (P0CH06 1-76 limits assumed): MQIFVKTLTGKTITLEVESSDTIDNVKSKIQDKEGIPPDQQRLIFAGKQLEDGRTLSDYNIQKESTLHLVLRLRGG
# Description: For interaction of the peptides with ^15N-ubiquitin, the lyophilized peptides were dissolved in MilliQ water and pH adjusted to 7.5. […] For the titrations of ubiquitin with each peptide, except the WT Dss1 peptide, 100 µM ubiquitin in NMR buffer was measured as one end point, and the 1 mM peptide and 100 µM ubiquitin as the other. Then, the peptide sample was titrated into the ubiquitin sample with titration points at 0, 50, 150, 300, 400, 500 and 1000 µM peptide. […] NMR samples were centrifuged 13.000×g for 5 min and transferred to either single-use 5 mm NMR tubes (Bruker) or 3 mm (Shigemi). To prepare NMR samples of ^15 N-labeled ubiquitin with full-length Dss1 and variants, lyophilized proteins were dissolved directly in the NMR buffer. The variants were each dissolved in 510 µL NMR buffer with 100 µM ubiquitin. The concentration of Dss1 in the NMR sample was determined by measuring the absorbance at 280 nm on a ND-1000 NanoDrop spectrophotometer, calibrated with the NMR buffer with 100 µM ubiquitin. The concentration of Dss1 varied between variants, depending on the purification yield. For all titrations, seven points of varying Dss1 concentration were recorded. To prepare NMR samples of ^15N-labeled ubiquitin with Spd1, Spd1 was buffer exchanged to MilliQ using a 3 kDa cut-off Amicon Ultra-0.5 ml centrifugal filter (Merk Millipore), lyophilized and resuspended in NMR buffer with 100 µM ubiquitin. […] For experiments with ubiquitin, 200 µL 1 mM ubiquitin was buffer exchanged to MilliQ water using a 3 kDa cut-off Amicon Ultra-0.5 ml centrifugal filter (Merk Millipore), lyophilized, and subsequently resuspended in 100 µL NMR buffer with 1 mM Dss1 for a final ubiquitin concentration of 2 mM and 1 mM, respectively. All samples were transferred to 3 mm (Shigemi) NMR tubes.
# All NMR spectra were recorded on Bruker Avance III HD 600 MHz spectrometer with a Bruker proton-optimized quadruple resonance NMR ‘inverse’ (QCI) cryoprobe, a Bruker Avance III HD 750 MHz spectrometer with a Bruker proton-optimized triple resonance NMR ‘inverse’ (TCI) cryoprobe and a Bruker Avance Neo 800 MHz spectrometer with a Bruker carbon/nitrogen-optimized triple-resonance NMR 'observe' (TXO) cryoprobe. […] All spectra were zero-filled, apodized using cosine bells in all dimensions, Fourier transformed, and the zero-order phase was corrected manually using either nmrDraw, a component of NmrPipe or qMDD if spectra were recorded using non-linear-sampling (NLS). All spectra were analysed using the Analysis software.
# The CSPs were fitted to a one-site-binding model using global fit, and the Kd-values are extracted using Eq. 2.2 Δδobs=Δδmax∙Pt+Lt+Kd-Pt+Lt+Kd^2-4Pt∙Lt^1/2/2∙Pt.
# Peaks giving rise to large uncertainties in the fit, either due to weak signals or overlap, were removed after a first iteration of fitting, and the fit repeated on the remaining dataset.
# ubiquitin [2] = target: T1, ubiquitin; test: Membrane-bound peptide array probed with Cy5-labeled ubiquitin; format: binding, S. pombe; conditions: 15-mer peptides on cellulose membrane, 0.4 µM Cy5-labeled ubiquitin, 1 h, RT, fluorescence at 650 nm, mean of two membranes; compared with Pep1
# Description: Two identical membrane-bound peptide arrays, each with 50 peptide spots, were purchased from JPT peptide technologies as PepSpots™ (Germany). Here, peptides are covalently attached to a cellulose membrane with the C-terminal amino acid through a β-alanine. Each peptide spot contained approximately 2.44·10^15 molecules or 4 nmol peptides. For detection of binding, ubiquitin was labeled at the N-terminal free cysteine with Cy5 maleimide fluorophore (GE Healthcare), which has an emission maximum at 666 nm. Ubiquitin or His6-SUMO (50 µL–70 µM) was reduced with 10 times molar excess tris(2-carboxyethyl)phosphine (TCEP), and incubated with one aliquot of 10 µL, 3 mM Cy5 in dimethyl sulfoxide (DMSO) at RT for 2 h. Excess Cy5 was neutralized with 10 µL 14.3 mM βME, and the mixture was separated on a gravity flow Sepharose column (from NanoTemper Monolith Protein Labeling Kit Red-NHS (Amine Reactive)). The column was equilibrated with tris buffered saline with Tween 20 (TBS-T) buffer (20 mM Tris, 150 mM NaCl, 1 mM EDTA, 500 µL/L Tween 20, pH 7). The ubiquitin/SUMO-Cy5 mixture (73.5 µL) was loaded on the column, followed by 426.5 µL TBS-T buffer. To evaluate the concentration of ubiquitin and Cy5, the absorbance at 280 nm and 650 nm of each fraction was measured on a ND-1000 NanoDrop spectrophotometer (Thermo Fischer Scientific). Fractions where the absorbance peaked at both wavelengths simultaneously were pooled and used for the peptide array.
# All wash and incubation steps were performed at RT on a rocking table. The membranes were first washed with 25 mL TBS-T buffer two times for 5 min. Next, the membranes were blocked with blocking buffer (TBS-T with 5% (w/v) skim milk powder) for 1 h and washed for 10 min in TBS-T buffer and the background signal at 650 nm acquired using a Chemidoc imager (Bio-Rad). […] After the incubation, the membranes were washed with TBS-T buffer for five times 5 min and the fluorescence signal at 650 nm acquired on the Chemidoc imager. The fluorescent signal was quantified using the image processing software ImageJ. The intensity from each peptide spot was read using the Microarray Profile plugin. The intensities acquired before adding ubiquitin were subtracted from the signals acquired after. Finally, the mean between the corresponding values from the two membranes was calculated and reported as the signal intensity for each peptide.
# ubiquitin [3] = conditions: read-out: Kd of known UIM sequence for ubiquitin; cited from earlier work
# SUMO [4] = test: Membrane-bound peptide array probed with Cy5-labeled SUMO; format: binding; conditions: 15-mer peptides on cellulose membrane, 0.4 µM Cy5-labeled His6-SUMO, 1 h, RT, fluorescence at 650 nm, mean of two membranes
# Description: Two identical membrane-bound peptide arrays, each with 50 peptide spots, were purchased from JPT peptide technologies as PepSpots™ (Germany). Here, peptides are covalently attached to a cellulose membrane with the C-terminal amino acid through a β-alanine. Each peptide spot contained approximately 2.44·10^15 molecules or 4 nmol peptides. For detection of binding, ubiquitin was labeled at the N-terminal free cysteine with Cy5 maleimide fluorophore (GE Healthcare), which has an emission maximum at 666 nm. […] To evaluate the concentration of ubiquitin and Cy5, the absorbance at 280 nm and 650 nm of each fraction was measured on a ND-1000 NanoDrop spectrophotometer (Thermo Fischer Scientific). Fractions where the absorbance peaked at both wavelengths simultaneously were pooled and used for the peptide array.
# All wash and incubation steps were performed at RT on a rocking table. […] After the incubation, the membranes were washed with TBS-T buffer for five times 5 min and the fluorescence signal at 650 nm acquired on the Chemidoc imager. The fluorescent signal was quantified using the image processing software ImageJ. The intensity from each peptide spot was read using the Microarray Profile plugin. […] Finally, the mean between the corresponding values from the two membranes was calculated and reported as the signal intensity for each peptide.
# SUMO [5] = conditions: read-out: SUMO affinity of known SUMO interacting motif; cited from earlier work
# Description: To investigate the binding specificity, we tested the peptides for interaction with the structurally related small ubiquitin-like modifier (SUMO), a ubiquitin-like protein also used as posttranslational modification, but involved in different signaling pathways. SUMO binds to extended stretches of residues with an interaction motif consisting of φφXφ, often followed by negatively charged residues or phosphorylation sites, where φ represents hydrophobic residues. Thus, known SUMO binding features partly overlap the features extracted above. Fluorescently labeled SUMO was added to ...
Substance,emission intensity of bound Cy5-ubiquitin (apparent affinity) (ubiquitin [2]),other results
Ac-DDTLWWEDDWWDDED-NH2 [PepDWD],,Kd (ubiquitin [1]): 600 ± 30 µM
Ac-DDTLWWENNWWDDED-NH2 [Pep42],increased emission intensity; also recorded: highest emission intensity,Kd (ubiquitin [1]): 1200 ± 90 µM
Ac-DLWEDDWDLWEDDWD-NH2 [PepDMD],,Kd (ubiquitin [1]): 480 ± 40 µM
Ac-DLWENNWDLWENNWD-NH2 [Pep43],highest emission intensity,Kd (ubiquitin [1]): 1300 ± 120 µM
Ac-GDDTLWENNWDDEDI-NH2 [Pep1],,chemical shift perturbations (CSPs) induced in the HSQC spectrum of ubiquitin (ubiquitin [1]; 1 mM 15-mer peptide added to 100 µM 15N-ubiquitin (120 µM for POLIIBP and ZFB)): much larger CSPs; Kd (ubiquitin [1]): 3000 ± 200 µM
"GDDTDWENNWDDEDI [Pep8, 15-mer variant of Dss1 UBS1, peptide array]",increased emission intensity,
"GDDTEWENNWDDEDI [Pep9, 15-mer variant of Dss1 UBS1, peptide array]",increased emission intensity,
"GDDTFWENNWDDEDI [Pep5, 15-mer variant of Dss1 UBS1, peptide array]",increased emission intensity,
"GDDTLWEDDWDDEDI [Pep20, 15-mer variant of Dss1 UBS1, peptide array]",increased emission intensity,
"GDDTLWETNWDDEDI [Pep39, 15-mer variant of Dss1 UBS1, peptide array]",enhanced emission; also recorded: increased ubiquitin affinity,
"GDDTLWEVNWDDEDI [Pep38, 15-mer variant of Dss1 UBS1, peptide array]",enhanced emission; also recorded: increased ubiquitin affinity,
"GDDTWWENNWDDEDI [Pep11, 15-mer variant of Dss1 UBS1, peptide array]",increased emission intensity,
GEAEERVVVISSSED [Pep48],,emission intensity of bound Cy5-SUMO (apparent affinity) (SUMO [4]): lower-than-average affinity; Kd (SUMO [5]): ~100 µM
LKVDVIDLTIESSSD [Pep47],,emission intensity of bound Cy5-SUMO (apparent affinity) (SUMO [4]): high apparent affinity; Kd (SUMO [5]): 1 µM

# The next lines start with results.
emission intensity of bound Cy5-ubiquitin (apparent affinity) (ubiquitin [2]),Substance,other results
only weak emission intensities,"EDPDLKAAIQESLRE [Pep45, reference compound]",Kd (ubiquitin [3]): 20 µM
increased emission intensity,"GDDDLWENNWDDEDI [Pep25, 15-mer variant of Dss1 UBS1, peptide array]",
reduced binding,"GDDTLWAAAWDDEDI [Pep36, 15-mer variant of Dss1 UBS1, peptide array]",
increased emission intensity,"GDDTLWENNWWDDED [Pep41, 15-mer variant of Dss1 UBS1, peptide array]",
enhanced emission,"GDDTLWEPNWDDEDI [Pep40, 15-mer variant of Dss1 UBS1, peptide array]",
no or negative effects on binding,"GDDTLWPNPWDDEDI [Pep37, 15-mer variant of Dss1 UBS1, peptide array]",
only weak emission intensities,"IQEDWELAERLQREE [Pep46, reference compound]",Kd (ubiquitin [3]): 100 µM
